In PubChem BioAssay (NCI):
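Interpolation was linear, between the two tested concentrations surrounding the appropriate level; five concentrations were tested over 48 hours in 96-well plates. The concentration for 50% growth inhibition is given as GI50. The concentration for full growth arrest is given as TGI.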

Experiments:
Assay in all cases: growth of human tumour cells (NCI), 48 h
MDA-MB-435 = test system: MDA-MB-435
BT-549 breast = test system: BT-549 breast
RPMI-8226 leukemia = test system: RPMI-8226 leukemia
LOX IMVI melanoma = test system: LOX IMVI melanoma
K-562 leukemia = test system: K-562 leukemia
SN12C renal = test system: SN12C renal
UO-31 renal = test system: UO-31 renal
COLO 205 colon = test system: COLO 205 colon
HT29 colon = test system: HT29 colon
HCC-2998 colon = test system: HCC-2998 colon
CAKI-1 renal = test system: CAKI-1 renal
A498 renal = test system: A498 renal
SR leukemia = test system: SR leukemia
U251 CNS = test system: U251 CNS
786-0 renal = test system: 786-0 renal
SK-MEL-5 melanoma = test system: SK-MEL-5 melanoma
SF-539 CNS = test system: SF-539 CNS
A549 NSCLC = test system: A549 NSCLC
SF-268 CNS = test system: SF-268 CNS
OVCAR-4 ovarian = test system: OVCAR-4 ovarian
MOLT-4 leukemia = test system: MOLT-4 leukemia
SNB-75 CNS = test system: SNB-75 CNS
NCI-H522 lung = test system: NCI-H522 lung
HCT-116 colon = test system: HCT-116 colon
RXF 393 renal = test system: RXF 393 renal
MDA-MB-468 breast = test system: MDA-MB-468 breast
SF-295 CNS = test system: SF-295 CNS
HCT-15 colon = test system: HCT-15 colon
UACC-257 melanoma = test system: UACC-257 melanoma
NCI-H23 lung = test system: NCI-H23 lung
HOP-62 NSCLC = test system: HOP-62 NSCLC
IGROV1 ovarian = test system: IGROV1 ovarian
OVCAR-5 ovarian = test system: OVCAR-5 ovarian
NCI-H460 lung = test system: NCI-H460 lung
PC-3 prostate = test system: PC-3 prostate
TK-10 renal = test system: TK-10 renal
SW-620 colon = test system: SW-620 colon
HS 578T breast = test system: HS 578T breast
SK-OV-3 ovarian = test system: SK-OV-3 ovarian
MCF7 breast = test system: MCF7 breast
UACC-62 melanoma = test system: UACC-62 melanoma
CCRF-CEM leukemia = test system: CCRF-CEM leukemia
NCI-H226 lung = test system: NCI-H226 lung
KM12 colon = test system: KM12 colon
OVCAR-8 ovarian = test system: OVCAR-8 ovarian
SNB-19 CNS = test system: SNB-19 CNS
OVCAR-3 ovarian = test system: OVCAR-3 ovarian
M14 melanoma = test system: M14 melanoma
SK-MEL-2 melanoma = test system: SK-MEL-2 melanoma
HL-60(TB) leukemia = test system: HL-60(TB) leukemia

O=C1NC(=NC23CC4CC(CC(C4)C2)C3)N/C1=C\c1ccc2ncsc2c1
GI50 (MDA-MB-435): 3.11 µM | TGI (MDA-MB-435): > 100 µM | GI50 (BT-549 breast): 1.63 µM | TGI (BT-549 breast): 7 µM | GI50 (RPMI-8226 leukemia): 1.2 µM | TGI (RPMI-8226 leukemia): 5.14 µM | GI50 (LOX IMVI melanoma): 0.928 µM | TGI (LOX IMVI melanoma): > 100 µM | GI50 (K-562 leukemia): 0.762 µM | TGI (K-562 leukemia): > 100 µM | GI50 (SN12C renal): 0.842 µM | TGI (SN12C renal): > 100 µM | GI50 (UO-31 renal): 2.96 µM | TGI (UO-31 renal): 8.04 µM | GI50 (COLO 205 colon): 1.8 µM | TGI (COLO 205 colon): 6.77 µM | GI50 (HT29 colon): 3.09 µM | TGI (HT29 colon): > 100 µM | GI50 (HCC-2998 colon): 3.32 µM | TGI (HCC-2998 colon): > 100 µM | GI50 (CAKI-1 renal): 1.33 µM | TGI (CAKI-1 renal): > 100 µM | GI50 (A498 renal): 2.7 µM | TGI (A498 renal): 7.79 µM | GI50 (SR leukemia): 0.17 µM | TGI (SR leukemia): 1.24 µM | GI50 (U251 CNS): 1.79 µM | TGI (U251 CNS): > 100 µM | GI50 (786-0 renal): 3.05 µM | TGI (786-0 renal): > 100 µM | GI50 (SK-MEL-5 melanoma): 0.899 µM | TGI (SK-MEL-5 melanoma): 5.56 µM | GI50 (SF-539 CNS): 0.432 µM | TGI (SF-539 CNS): 3.06 µM | GI50 (A549 NSCLC): 1.19 µM | TGI (A549 NSCLC): > 100 µM | GI50 (SF-268 CNS): 2.23 µM | TGI (SF-268 CNS): 6.58 µM | GI50 (OVCAR-4 ovarian): 3.2 µM | TGI (OVCAR-4 ovarian): > 100 µM | GI50 (MOLT-4 leukemia): 1.65 µM | TGI (MOLT-4 leukemia): > 100 µM | GI50 (SNB-75 CNS): 1.62 µM | TGI (SNB-75 CNS): 4.29 µM | GI50 (NCI-H522 lung): 0.168 µM | TGI (NCI-H522 lung): 4.79 µM | GI50 (HCT-116 colon): 0.323 µM | TGI (HCT-116 colon): > 100 µM | GI50 (RXF 393 renal): 2.01 µM | TGI (RXF 393 renal): 4.21 µM | GI50 (MDA-MB-468 breast): 1.24 µM | TGI (MDA-MB-468 breast): 3.67 µM | GI50 (SF-295 CNS): 3.4 µM | TGI (SF-295 CNS): > 100 µM | GI50 (HCT-15 colon): 0.663 µM | TGI (HCT-15 colon): > 100 µM | GI50 (UACC-257 melanoma): 4.11 µM | TGI (UACC-257 melanoma): > 100 µM | GI50 (NCI-H23 lung): 1.58 µM | TGI (NCI-H23 lung): 7.36 µM | GI50 (HOP-62 NSCLC): 3.35 µM | TGI (HOP-62 NSCLC): > 100 µM | GI50 (IGROV1 ovarian): 2.58 µM | TGI (IGROV1 ovarian): > 100 µM | GI50 (OVCAR-5 ovarian): 2.45 µM | TGI (OVCAR-5 ovarian): > 100 µM | GI50 (NCI-H460 lung): 0.538 µM | TGI (NCI-H460 lung): > 100 µM | GI50 (PC-3 prostate): 3.29 µM | TGI (PC-3 prostate): > 100 µM | GI50 (TK-10 renal): 2.87 µM | TGI (TK-10 renal): > 100 µM | GI50 (SW-620 colon): 1.81 µM | TGI (SW-620 colon): > 100 µM | GI50 (HS 578T breast): 2.73 µM | TGI (HS 578T breast): 8.13 µM | GI50 (SK-OV-3 ovarian): 5.47 µM | TGI (SK-OV-3 ovarian): > 100 µM | GI50 (MCF7 breast): 1.37 µM | TGI (MCF7 breast): > 100 µM | GI50 (UACC-62 melanoma): 3.11 µM | TGI (UACC-62 melanoma): > 100 µM | GI50 (CCRF-CEM leukemia): 1.12 µM | TGI (CCRF-CEM leukemia): 5.96 µM | GI50 (NCI-H226 lung): 1.43 µM | TGI (NCI-H226 lung): > 100 µM | GI50 (KM12 colon): 1.8 µM | TGI (KM12 colon): > 100 µM | GI50 (OVCAR-8 ovarian): 1.68 µM | TGI (OVCAR-8 ovarian): > 100 µM | GI50 (SNB-19 CNS): 3.58 µM | TGI (SNB-19 CNS): > 100 µM | GI50 (OVCAR-3 ovarian): 1.74 µM | TGI (OVCAR-3 ovarian): 6.73 µM | GI50 (M14 melanoma): 2.42 µM | TGI (M14 melanoma): > 100 µM | GI50 (SK-MEL-2 melanoma): 0.933 µM | TGI (SK-MEL-2 melanoma): 3.13 µM | GI50 (HL-60(TB) leukemia): 1.63 µM | TGI (HL-60(TB) leukemia): 5.25 µM

CCN(CC)c1ccc(/C=N/NC(=O)c2ccc(NS(C)(=O)=O)cc2)c(O)c1
GI50 (MDA-MB-468 breast): 0.331 µM | TGI (MDA-MB-468 breast): 2.93 µM

CN[C@@H](C)C(=O)N[C@H](C(=O)N1CCC[C@H]1C(=O)Nc1snnc1-c1ccccc1)C1CCCCC1
GI50 (MDA-MB-468 breast): 16 µM | TGI (MDA-MB-468 breast): 59.4 µM

CCCCCCCCCCCCCCCCCCOc1ccccc1CC(=O)OCC[N+]1(C)CCCCC1
GI50 (MDA-MB-468 breast): 1.53 µM | TGI (MDA-MB-468 breast): 3.83 µM

C#Cc1c(F)ccc2cc(O)cc(-c3ncc4c(N5CC6CCC(C5)N6)nc(OC[C@@]56CCCN5C[C@H](F)C6)nc4c3F)c12
GI50 (MDA-MB-468 breast): 4.78 µM | TGI (MDA-MB-468 breast): 11.9 µM

COc1ccc(-c2nc(-c3nc4ccc(OC)cc4[nH]3)c3ccccn23)cc1
GI50 (MDA-MB-468 breast): 4.08 µM | TGI (MDA-MB-468 breast): 84.5 µM

COc1cnc2c(c1)C(=O)c1c-2n(CCCn2ccnc2)c(=O)c2cc(F)ccc12
GI50 (MDA-MB-468 breast): 0.0197 µM | TGI (MDA-MB-468 breast): 0.154 µM

C=C1C(=O)O[C@H]2[C@H]1CC/C(COC(=O)NCc1ccc(Cn3c(=O)sn(CCCl)c3=O)cc1)=C\CC[C@@]1(C)O[C@@H]21
GI50 (MDA-MB-468 breast): 1.78 µM | TGI (MDA-MB-468 breast): 4.52 µM

C=C1CCC2C3(C)COC(c4ccc(N(C)C)cc4)OC3CCC2(C)C1C/C=C1/C(=O)OCC1O (configuration not stated)
GI50 (MDA-MB-468 breast): 1.44 µM | TGI (MDA-MB-468 breast): 3.09 µM

COc1ccc(C(=O)c2cc(OC)c(OC)c(OC)c2)cc1OC(=O)CCl
GI50 (MDA-MB-468 breast): 0.787 µM

COc1ccc(-c2cc(=O)[nH]c3c(OC)c4ccccc4c(OC)c23)cc1
GI50 (MDA-MB-468 breast): 0.557 µM

CC/C=C1/C(=O)C=C[C@@H]1C/C=C\CCCC(=O)OC
GI50 (MDA-MB-468 breast): 2.31 µM | TGI (MDA-MB-468 breast): 6.04 µM

c1ccc2[nH]c(-c3ccc(-c4nccc5c4[nH]c4ccccc45)cc3)nc2c1
GI50 (MDA-MB-468 breast): 2.52 µM | TGI (MDA-MB-468 breast): 6.62 µM
